Measured values as given in PMC9820738, “Spectrofluorimetric and Computational Investigation of New Phthalimide Derivatives towards Human Neutrophil Elastase Inhibition and Antiproliferative Activity” (International Journal of Molecular Sciences, 2022).
Read-outs that look alike come from different tables or passages of the source.

Experiments:
[1] = tested on: MDA-MB-231 human breast adenocarcinoma cells; experiment: In vitro antiproliferative assay, MDA-MB-231; type: cell-based; details: for IC50: MDA-MB-231, read-out: IC50 ± SD, antiproliferative activity; for SI BALB/3T3/ MDA-MB-231: IC50 in normal cell line / IC50 in cancer cell line
Experimental: (§1) Cell preparation, in vitro antiproliferative assay, MTT and SRB cytotoxic tests were performed according to literature.

[2] = tested on: A549 lung carcinoma cells; experiment: In vitro antiproliferative assay, A549; type: cell-based, human; details: for IC50: A549, read-out: IC50 ± SD, antiproliferative activity; for SI BALB/3T3/ A549: IC50 in normal cell line / IC50 in cancer cell line
Experimental: as §1

[3] = tested on: BALB/3T3 normal mouse fibroblast cells; experiment: In vitro cytotoxicity on normal fibroblasts, BALB/3T3; type: cell-based; details: BALB/3T3 normal mouse fibroblasts; read-out: IC50 ± SD, antiproliferative activity
Experimental: as §1

[4] = tested on: MV4-11 human biphenotypic B myelomonocytic leukemia cells; experiment: In vitro antiproliferative assay, MV4-11; type: cell-based; details: for IC50: MV4-11, read-out: IC50 ± SD, antiproliferative activity; for SI BALB/3T3/ MV4-11: IC50 in normal cell line / IC50 in cancer cell line
Experimental: as §1

[5] = molecular target: T1, human neutrophil elastase (HNE) (Homo sapiens, UniProt P08246); experiment: Fluorometric human neutrophil elastase (HNE) inhibition assay, MOSuc-AAPV-AMC substrate; type: biochemical; details: HNE 20 mU/mL, 25 µM substrate, 0.1 M HEPES pH 7.5, 25 °C, triplicate; read-out: IC50 ± SD, elastase inhibitory activity
T1 sequence (P08246 30-267): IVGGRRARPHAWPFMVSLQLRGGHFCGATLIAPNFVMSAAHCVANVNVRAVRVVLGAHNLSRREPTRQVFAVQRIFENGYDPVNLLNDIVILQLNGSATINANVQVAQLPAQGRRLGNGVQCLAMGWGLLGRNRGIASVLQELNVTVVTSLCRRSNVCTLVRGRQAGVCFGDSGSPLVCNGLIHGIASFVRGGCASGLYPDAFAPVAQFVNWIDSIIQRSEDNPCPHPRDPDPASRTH
Experimental: Fluorometric assay for human neutrophil elastase (HNE) inhibition was performed according to the previously presented method with some modifications, using N-methoxysuccinyl-Ala-Ala-Pro-Val-7-amido-4-methyl-coumarin (MOSuc-AAPV-AMC, Calbiochem) as substrate. […] The reaction was carried out in assay buffer containing 0.1 M HEPES (pH 7.5). Briefly, different concentration of tested compounds was incubated with 20 mU/mL of HNE (Bradford) in 25 °C. The reaction was started by addition of 25 µM elastase substrate to final reaction volume 100 µL and monitored for 30 min at 25 °C on a microplate reader (FP-8500 Spectrofluorometer, JASCO, USA) with excitation and emission wavelengths of 380 nm and 440 nm, respectively. By computing the log of inhibitors concentrations versus the percentage of activity, the IC50 values were determined by non-linear regression analysis. Assays were performed in triplicate and data presented as the mean and the standard deviation. Ursolic acid was used as the reference compound.

[6] = tested on: UMUC-3 human bladder transitional cell carcinoma cells; experiment: In vitro antiproliferative assay, UMUC-3; type: cell-based; details: for IC50: UMUC-3, read-out: IC50 ± SD, antiproliferative activity; for SI BALB/3T3/ UMUC-3: IC50 in normal cell line / IC50 in cancer cell line
Experimental: as §1

[7] = Spontaneous hydrolysis (chemical stability) in phosphate buffer, spectrophotometric; type: physicochemical; details: 0.05 M phosphate buffer pH 7.3, 25 °C, λ 305 nm
Experimental: Spontaneous compound hydrolysis studies were performed following the literature procedure. The kinetics hydrolysis of the compounds was evaluated at 25 °C in 0.05 M phosphate buffer, pH 7.3, by measuring changes in absorbance spectra during incubation using a T60U spectrophotometer (PG Instruments). The absorbance (At) at characteristic absorption maxima for each compound was measured at 10 min intervals until there was no further decrease in absorbance (Aꝏ). Using these measurements, semilogarithmic plots of the dependence of log(At–Aꝏ) on time were prepared, and k’ values were determined from the slope of these plots according to the first order reaction kinetics. Half-conversion times were calculated using equation: t1/2 = 0.693/k’.

[8] = molecular target: T1, human neutrophil elastase (HNE); experiment: Kinetic analysis of the inhibition of elastase (Lineweaver–Burk, secondary plots); type: biochemical
Experimental: Kinetic studies were conducted in the presence of different concentrations of substrate (5, 25, 50 and 100 µM) and test compound (in the range of 0–10 µM). The reaction conditions were the same as in the HNE inhibition assay and the reaction was monitored for 10 min at 25 °C with the same Ex an Em wavelengths. By Lineweaver–Burk plots, kinetic values such as Michaelis–Menten constants and maximum velocity were determined. Next, two inhibition constants for inhibitor binding with free enzyme or enzyme–substrate complex (Ki and Kis) were obtained by plotting the secondary plot of the slopes of the determined straight lines or vertical intercept versus inhibitor concentration.

| SMILES | IC50 ([1]; Homo sapiens) [µM] | IC50 ([2]; Homo sapiens) [µM] | IC50 [3] [µM] | IC50 ([4]; Homo sapiens) [µM] | IC50 [5] [µM] | IC50 ([6]; Homo sapiens, UMUC3) [µM] | k, rate constant of spontaneous hydrolysis [7] [min⁻¹] | half-life ([7]; read-out: t1/2, half-life for the spontaneous hydrolysis) [min] | SI BALB/3T3/ MDA-MB-231 [1] | SI BALB/3T3/ A549 [2] | SI BALB/3T3/ MV4-11 [4] | melting point [°C] | Inhibition Type ([8]; Lineweaver–Burk and Dixon analysis) | Ki ([8]; inhibitor binding with free enzyme, secondary plot) [µM] | SI BALB/3T3/ UMUC-3 [6] | IC50 [1] [µM] | IC50 [2] [µM] | IC50 [4] [µM] | IC50 [6] [µM] |
| --- | --- | --- | --- | --- | --- | --- | --- | --- | --- | --- | --- | --- | --- | --- | --- | --- | --- | --- | --- |
| O=C1c2ccccc2C(=O)N1CCc1csc(Nc2ccc(F)cc2)n1 [Compound 4a, 2-(2-(2-(4-Fluorophenylamino)thiazol-4-yl)ethyl)isoindoline-1,3-dione] | 110 ± 24.5 | 50.7 ± 3.32 | 74.2 ± 12.2 | 59.6 ± 4.63 | 29.4 ± 3.13 | 82.3 ± 2.18 |  |  |  |  |  |  |  |  |  |  |  |  |  |
| O=C1c2ccccc2C(=O)N1CCc1csc(Nc2ccc(Cl)cc2)n1 [Compound 4b, 2-(2-(2-(4-Chlorophenylamino)thiazol-4-yl)ethyl)isoindoline-1,3-dione] | 86.5 ± 10.7 | 18.1 ± 0.94 | 66.2 ± 4.17 | 12.2 ± 4.56 | 46.5 ± 4.85 | 61.7 ± 1.56 |  |  |  |  |  |  |  |  |  |  |  |  |  |
| O=C1c2ccccc2C(=O)N1CCc1csc(Nc2ccc(C(F)(F)F)cc2)n1 [Compound 4c, 2-(2-(2-(4-(Trifluoromethyl)phenylamino)thiazol-4-yl)ethyl)isoindoline-1,3-dione] | 77.5 ± 13.7 | 14 ± 1.56 | 84.9 ± 18.2 | 46.6 ± 25.4 | 13 | 75.2 ± 6.71 | 0.018 | 38.5 | 1.10 | 6.07 | 1.82 | 170 to 172 | mixed type I inhibition | 4.54 | 1.13 |  |  |  |  |
| COc1cc(Nc2nc(CCN3C(=O)c4ccccc4C3=O)cs2)cc(OC)c1OC [Compound 4d, 2-(2-(2-(3,4,5-Trimethoxyphenylamino)thiazol-4-yl)ethyl)isoindoline-1,3-dione] | 48.9 ± 13.2 | 23.7 ± 5.23 | 46.8 ± 2.05 | 8.21 ± 2.37 | 22.9 ± 1.59 | 46.1 ± 7.28 |  |  |  |  |  |  |  |  |  |  |  |  |  |
| O=C1c2ccccc2C(=O)N1CCc1csc(Nc2cccc3ccccc23)n1 [Compound 4e, 2-(2-(2-(Naphthalen-1-ylamino)thiazol-4-yl)ethyl)isoindoline-1,3-dione] | 76.4 ± 11.1 | 41.1 ± 3.13 | 103 ± 30.7 | 33.2 ± 12 | 15.6 ± 0.16 | 80 ± 16.2 |  |  | 1.34 | 2.50 | 3.09 | 161 to 162 |  |  | 1.28 |  |  |  |  |
| Cc1cc(C)cc(Nc2nc(CCN3C(=O)c4ccccc4C3=O)cs2)c1 [Compound 4f, 2-(2-(2-(3,5-Dimethylphenylamino)thiazol-4-yl)ethyl)isoindoline-1,3-dione] | 86.4 ± 12.2 | 25.6 ± 3.63 | 101 ± 12.2 | 13.2 ± 4.77 | 49.9 ± 0.98 | 66.5 ± 9.8 |  |  |  |  |  |  |  |  |  |  |  |  |  |
| NS(=O)(=O)c1ccc(Nc2nc(CCN3C(=O)c4ccccc4C3=O)cs2)cc1 [Compound 4g, 4-(4-(2-(1,3-Dioxoisoindolin-2-yl)ethyl)thiazol-2-ylamino)benzenesulfonamide] | 9.66 ± 1.4 |  | 14.3 ± 2.1 | 83.3 ± 26.6 | 64.9 ± 7.75 | 19.8 ± 1.4 |  |  | 1.49 |  | 0.17 | > 260 |  |  | 0.72 |  |  |  |  |
| O=C1c2ccccc2C(=O)N1CCc1csc(Nc2c(Cl)cc(Cl)cc2Cl)n1 [Compound 4h, 2-(2-(2-(2,4,6-Trichlorophenylamino)thiazol-4-yl)ethyl)isoindoline-1,3-dione] |  | 57.1 ± 19.4 |  | 48.5 ± 21.4 | 16.6 ± 2.06 | 120 ± 36 |  |  |  |  |  | 168 to 169 |  |  |  |  |  |  |  |
| CC(=O)c1ccc(Nc2nc(CCN3C(=O)c4ccccc4C3=O)cs2)cc1 [Compound 4i, 2-(2-(2-(4-Acetylphenylamino)thiazol-4-yl)ethyl)isoindoline-1,3-dione] | 87.7 ± 22 | 62.9 ± 5.75 | 99 ± 21.2 | 44.5 ± 20.2 | 25.6 ± 1.78 | 74.1 ± 12 |  |  |  |  |  |  |  |  |  |  |  |  |  |
| C[C@H]1[C@H](C)CC[C@]2(C(=O)O)CC[C@]3(C)C(=CC[C@@H]4[C@@]5(C)CC[C@H](O)C(C)(C)[C@@H]5CC[C@]43C)[C@H]12 [Ursolic acid, reference compound] |  |  |  |  | 5.32 ± 0.68 |  |  |  |  |  |  |  |  |  |  |  |  |  |  |
| N.N.[Cl][Pt][Cl] [cisplatin, reference compound] |  |  | 8.47 ± 1.96 |  |  |  |  |  |  |  |  |  |  |  |  | 15.6 ± 2 | 5.41 ± 0.6 | 1.43 ± 0.4 | 1.73 ± 0.17 |
